# In US20030155090A1, “Process for controlling microbial growth” (priority 2000, published 2003):
# Tests used:
# [1] = test system: microbial activity during storage; assay: Full-scale mill trial, carbon dioxide introduced just prior to the pulp storage tower; settings: 1-2 kg CO2/ton pulp just prior to the storage tower, chemical pulp
# Protocol: A mill produced wood-free paper from chemical pulp. At the time of the trials, the mill stored pulp for long periods of time in storage towers prior to the stock preparation. The storage caused problems with bad smell and black spots in the pulp, which was believed to be caused by high microbial activity during storage.
# A full-scale trial of treatment with a gaseous inhibitor was performed. Thus, carbon dioxide gas was introduced in an amount of 1-2 kg CO2/ton pulp just prior to the storage tower.
# Strain 3 = assay: Survival of isolated bacteria in nutrient broth under a CO2 atmosphere at 45° C., colony count on agar plates; assay type: cell-based
# Protocol: (§1) A set of representative bacterial strains was isolated from a white water sample from a Swedish recycled pulp mill. The sample originally yielded 70 bacterial strains which each represented a group of different bacteria, which grew under similar conditions. The strains were tested on different media and their oxygen demands were studied. The results gave an indication of eight main groups. […] Those three groups were put together to one large group.
# (§2) From this dominating group, one strain was chosen for the carbon dioxide experiments. Two other strains from another recycled pulp mill were included in the experiments.
# (§3) Glass bottles were tempered to 45° C. and CO2 was added to create a carbon dioxide atmosphere. Bacteria from the three isolated strains were added to separate bottles together with a nutrient broth. A first sample representing “0 min” was taken out immediately from each bottle and then at a number of occasions during the next three hours. Each sample was diluted in dilution series with dilution 1/10 in six steps (10^1-10^6) and grown on agar plates. The plates were incubated at 45° C. for two days, after which the number of colonies were counted and related to the dilution.
# Strain 1 = assay: as above; assay type: cell-based
# Protocol: as §1, §2, §3
# Strain 2 = assay: as above; assay type: cell-based
# Protocol: as §1, §2, §3
# three isolated strains = assay: Survival under a CO2 atmosphere, average of the three isolated strains; assay type: cell-based, bacteria; settings: for percentage of surviving cells, Average: 45° C.
# Protocol: as §1, §2, §3
compound,measurement,setting,value
"O=C=O [CO2, carbon dioxide]",number of black spots in the pulp,[1],reduced
same,pulp's smell,[1],reduced
same,percentage of surviving cells,"Strain 3; Strain 3, 0 min",100%
same,percentage of surviving cells,"Strain 3; Strain 3, 10 min",92%
same,percentage of surviving cells,"Strain 3; Strain 3, 20 min",77%
same,percentage of surviving cells,"Strain 3; Strain 3, 30 min",58%
same,percentage of surviving cells,"Strain 3; Strain 3, 40 min",47%
same,percentage of surviving cells,"Strain 3; Strain 3, 50 min",36%
same,percentage of surviving cells,"Strain 3; Strain 3, 60 min",67%
same,percentage of surviving cells,"Strain 3; Strain 3, 80 min",44%
same,percentage of surviving cells,"Strain 3; Strain 3, 100 min",42%
same,percentage of surviving cells,"Strain 3; Strain 3, 120 min",16%
same,percentage of surviving cells,"Strain 3; Strain 3, 140 min",7%
same,percentage of surviving cells,"Strain 3; Strain 3, 160 min",4%
same,percentage of surviving cells,"Strain 3; Strain 3, 180 min",2%
same,percentage of surviving cells,"Strain 1; Strain 1, 0 min",100%
same,percentage of surviving cells,"Strain 1; Strain 1, 10 min",75%
same,percentage of surviving cells,"Strain 1; Strain 1, 20 min",34%
same,percentage of surviving cells,"Strain 1; Strain 1, 30 min",73%
same,percentage of surviving cells,"Strain 1; Strain 1, 40 min",50%
same,percentage of surviving cells,"Strain 1; Strain 1, 50 min",61%
same,percentage of surviving cells,"Strain 1; Strain 1, 60 min",59%
same,percentage of surviving cells,"Strain 1; Strain 1, 80 min",39%
same,percentage of surviving cells,"Strain 1; Strain 1, 100 min",16%
same,percentage of surviving cells,"Strain 1; Strain 1, 120 min",18%
same,percentage of surviving cells,"Strain 1; Strain 1, 140 min",5%
same,percentage of surviving cells,"Strain 1; Strain 1, 160 min",4%
same,percentage of surviving cells,"Strain 1; Strain 1, 180 min",9%
same,percentage of surviving cells,"Strain 2; Strain 2, 0 min",100%
same,percentage of surviving cells,"Strain 2; Strain 2, 10 min",141%
same,percentage of surviving cells,"Strain 2; Strain 2, 20 min",76%
same,percentage of surviving cells,"Strain 2; Strain 2, 30 min",137%
same,percentage of surviving cells,"Strain 2; Strain 2, 40 min",48%
same,percentage of surviving cells,"Strain 2; Strain 2, 50 min",94%
same,percentage of surviving cells,"Strain 2; Strain 2, 60 min",46%
same,percentage of surviving cells,"Strain 2; Strain 2, 80 min",88%
same,percentage of surviving cells,"Strain 2; Strain 2, 100 min",55%
same,percentage of surviving cells,"Strain 2; Strain 2, 120 min",43%
same,percentage of surviving cells,"Strain 2; Strain 2, 140 min",35%
same,percentage of surviving cells,"Strain 2; Strain 2, 160 min",41%
same,percentage of surviving cells,"Strain 2; Strain 2, 180 min",24%
same,"percentage of surviving cells, Average","three isolated strains; Average of Strains 1-3, 0 min",100%
same,"percentage of surviving cells, Average","three isolated strains; Average of Strains 1-3, 10 min",103%
same,"percentage of surviving cells, Average","three isolated strains; Average of Strains 1-3, 20 min",62%
same,"percentage of surviving cells, Average","three isolated strains; Average of Strains 1-3, 30 min",89%
same,"percentage of surviving cells, Average","three isolated strains; Average of Strains 1-3, 40 min",48%
same,"percentage of surviving cells, Average","three isolated strains; Average of Strains 1-3, 50 min",64%
same,"percentage of surviving cells, Average","three isolated strains; Average of Strains 1-3, 60 min",57%
same,"percentage of surviving cells, Average","three isolated strains; Average of Strains 1-3, 80 min",57%
same,"percentage of surviving cells, Average","three isolated strains; Average of Strains 1-3, 100 min",38%
same,"percentage of surviving cells, Average","three isolated strains; Average of Strains 1-3, 120 min",47%
same,"percentage of surviving cells, Average","three isolated strains; Average of Strains 1-3, 140 min",16%
same,"percentage of surviving cells, Average","three isolated strains; Average of Strains 1-3, 160 min",16%
same,"percentage of surviving cells, Average","three isolated strains; Average of Strains 1-3, 180 min",12%
same,bacteria survived,three isolated strains; after 2 hours,about 50%
same,bacteria survived,three isolated strains; after 3 hours,more than 10%
same,bacteria survived,three isolated strains; after approximately 1 hour,about 60%
